From the supplement of paper PMC4862054
Several values for one entry are separate records, joined by “and”; a condition that tells them apart may be missing. Equal values may be shown once.

What follows are compounds tested on CAL-148 (assay: normalised viability (% of control), CellTiter-Blue; higher = more viable cells (about 100 = DMSO control)). Details: 29.7 nM; incubation time: 72 h.
In short: (§1)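 Breast cancer cell lines in 20 µl suspension were seeded onto 384-well plates pre-loaded with compound dissolved in 5 µl medium, then incubated 72 h. CellTiter-Blue reagent (2.5 µl) was added for 2 h at 37 °C and fluorescence read at 560/590 nm. Each plate was normalised to vehicle (100) and a positive kill control (0), with Z'-factor quality control. The value is normalised viability at one listed concentration of the series.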

For `CCN(CC)CCCC(C)Nc1c2ccc(Cl)cc2nc2ccc(OC)cc12` (stereo unspecified) [Mepacrine], which normalised viability is on record?
Its normalised viability is 105%.

Same assay, conditions: 30 nM; incubation time: 72 h

With `O=C(/C=C/c1cccnc1)NCCCCC1CCN(C(=O)c2ccccc2)CC1` [FK-866] as the compound, how does the normalised viability read?
The normalised viability was 73.7%.

`CC[C@@H]1C(=O)N(C)c2cnc(Nc3ccc(C(=O)NC4CCN(C)CC4)cc3OC)nc2N1C1CCCC1` [BI 2536] was tested. Which normalised viability did it give?
The normalised viability was 25.5%.

Same assay, conditions: 300 nM; incubation time: 72 h

`Nc1ncn([C@H]2C[C@H](O)[C@@H](CO)O2)c(=O)n1` [Decitabine] was tested. Which normalised viability did it give?
Its normalised viability is 97.3% and 76%.

How did the normalised viability turn out when `CCN(CC)CCCC(C)Nc1c2ccc(Cl)cc2nc2ccc(OC)cc12` (stereo unspecified) [Mepacrine] was run?
Its normalised viability is 102%.

`Nc1nc2[nH]cc(CCc3ccc(C(=O)N[C@@H](CCC(=O)O)C(=O)O)cc3)c2c(=O)[nH]1` [Pemetrexed] was tested. Which normalised viability did it give?
The normalised viability was 106%.

Which normalised viability does the source give for `COc1cc([C@@H]2c3cc4c(cc3[C@@H](O[C@@H]3O[C@@H]5CO[C@@H](c6cccs6)O[C@H]5[C@H](O)[C@H]3O)[C@H]3COC(=O)[C@H]23)OCO4)cc(OC)c1O` [Teniposide] here?
Its normalised viability is 49.2%.

Which normalised viability does the source give for `COc1cc2nccc(Oc3ccc(NC(=O)Nc4cc(C)on4)c(Cl)c3)c2cc1OC` [Tivozanib] here?
The normalised viability was 95.9%.

How did the normalised viability turn out when `O=C(Cc1ccc(-c2ccc(OCCN3CCOCC3)cc2)cn1)NCc1ccccc1` [KX2-391] was run?
Its normalised viability is 20.4%.

With `Nc1ccccc1NC(=O)c1ccc(CNC(=O)OCc2cccnc2)cc1` [Entinostat] as the compound, how does the normalised viability read?
Its normalised viability is 86.9%.

With `C=CC(=O)Nc1cc2c(Nc3ccc(F)c(Cl)c3)ncnc2cc1OCCCN1CCOCC1` [Canertinib] as the compound, how does the normalised viability read?
Its normalised viability is 81.2%.

For `CC[C@H](Nc1ncnc2[nH]cnc12)c1nc2cccc(F)c2c(=O)n1-c1ccccc1` [CAL-101], which normalised viability is on record?
Its normalised viability is 90.4%.

Each compound was assayed on CAL-85-1 in the same assay as above. Details: 7.5 nM; incubation time: 72 h.
In short: as §1

With `CC(=O)Nc1cccc(-n2c(=O)n(C3CC3)c(=O)c3c(Nc4ccc(I)cc4F)n(C)c(=O)c(C)c32)c1` as the compound, how does the normalised viability read?
The normalised viability was 76.2%.

Same assay, conditions: 29.7 nM; incubation time: 72 h

`CCN(CC)CCCC(C)Nc1c2ccc(Cl)cc2nc2ccc(OC)cc12` (stereo unspecified) [Mepacrine] was tested. Which normalised viability did it give?
The normalised viability was 101%.

Same assay, conditions: 30 nM; incubation time: 72 h

Which normalised viability does the source give for `O=C(/C=C/c1cccnc1)NCCCCC1CCN(C(=O)c2ccccc2)CC1` [FK-866] here?
The normalised viability was 72.4%.

`CC[C@@H]1C(=O)N(C)c2cnc(Nc3ccc(C(=O)NC4CCN(C)CC4)cc3OC)nc2N1C1CCCC1` [BI 2536] was tested. Which normalised viability did it give?
Its normalised viability is 45.3%.

Same assay, conditions: 300 nM; incubation time: 72 h

Which normalised viability does the source give for `Nc1ncn([C@H]2C[C@H](O)[C@@H](CO)O2)c(=O)n1` [Decitabine] here?
The normalised viability was 81.5% and 90.7%.

For `CCN(CC)CCCC(C)Nc1c2ccc(Cl)cc2nc2ccc(OC)cc12` (stereo unspecified) [Mepacrine], which normalised viability is on record?
The normalised viability was 100%.

For `Nc1nc2[nH]cc(CCc3ccc(C(=O)N[C@@H](CCC(=O)O)C(=O)O)cc3)c2c(=O)[nH]1` [Pemetrexed], which normalised viability is on record?
Its normalised viability is 107%.

Which normalised viability does the source give for `COc1cc([C@@H]2c3cc4c(cc3[C@@H](O[C@@H]3O[C@@H]5CO[C@@H](c6cccs6)O[C@H]5[C@H](O)[C@H]3O)[C@H]3COC(=O)[C@H]23)OCO4)cc(OC)c1O` [Teniposide] here?
The normalised viability was 82.6%.

For `COc1cc2nccc(Oc3ccc(NC(=O)Nc4cc(C)on4)c(Cl)c3)c2cc1OC` [Tivozanib], which normalised viability is on record?
The normalised viability was 102%.

For `O=C(Cc1ccc(-c2ccc(OCCN3CCOCC3)cc2)cn1)NCc1ccccc1` [KX2-391], which normalised viability is on record?
Its normalised viability is 36.3%.

How did the normalised viability turn out when `Nc1ccccc1NC(=O)c1ccc(CNC(=O)OCc2cccnc2)cc1` [Entinostat] was run?
Its normalised viability is 109%.

For `C=CC(=O)Nc1cc2c(Nc3ccc(F)c(Cl)c3)ncnc2cc1OCCCN1CCOCC1` [Canertinib], which normalised viability is on record?
Its normalised viability is 54%.

How did the normalised viability turn out when `CC[C@H](Nc1ncnc2[nH]cnc12)c1nc2cccc(F)c2c(=O)n1-c1ccccc1` [CAL-101] was run?
The normalised viability was 81.9%.

The compounds below were run on HDQ-P1 in the same assay as above. Details: 7.5 nM; incubation time: 72 h.
In short: as §1

How did the normalised viability turn out when `CC(=O)Nc1cccc(-n2c(=O)n(C3CC3)c(=O)c3c(Nc4ccc(I)cc4F)n(C)c(=O)c(C)c32)c1` was run?
The normalised viability was 54.1%.

Same assay, conditions: 29.7 nM; incubation time: 72 h

With `CCN(CC)CCCC(C)Nc1c2ccc(Cl)cc2nc2ccc(OC)cc12` (stereo unspecified) [Mepacrine] as the compound, how does the normalised viability read?
Its normalised viability is 117%.

Same assay, conditions: 30 nM; incubation time: 72 h

`O=C(/C=C/c1cccnc1)NCCCCC1CCN(C(=O)c2ccccc2)CC1` [FK-866] was tested. Which normalised viability did it give?
The normalised viability was 64.3%.

With `CC[C@@H]1C(=O)N(C)c2cnc(Nc3ccc(C(=O)NC4CCN(C)CC4)cc3OC)nc2N1C1CCCC1` [BI 2536] as the compound, how does the normalised viability read?
The normalised viability was 43.6%.

Same assay, conditions: 300 nM; incubation time: 72 h

With `Nc1ncn([C@H]2C[C@H](O)[C@@H](CO)O2)c(=O)n1` [Decitabine] as the compound, how does the normalised viability read?
The normalised viability was 65.3% and 81.8%.

How did the normalised viability turn out when `CCN(CC)CCCC(C)Nc1c2ccc(Cl)cc2nc2ccc(OC)cc12` (stereo unspecified) [Mepacrine] was run?
The normalised viability was 109%.

Which normalised viability does the source give for `Nc1nc2[nH]cc(CCc3ccc(C(=O)N[C@@H](CCC(=O)O)C(=O)O)cc3)c2c(=O)[nH]1` [Pemetrexed] here?
The normalised viability was 83.7%.

`COc1cc([C@@H]2c3cc4c(cc3[C@@H](O[C@@H]3O[C@@H]5CO[C@@H](c6cccs6)O[C@H]5[C@H](O)[C@H]3O)[C@H]3COC(=O)[C@H]23)OCO4)cc(OC)c1O` [Teniposide] was tested. Which normalised viability did it give?
Its normalised viability is 86.3%.

With `COc1cc2nccc(Oc3ccc(NC(=O)Nc4cc(C)on4)c(Cl)c3)c2cc1OC` [Tivozanib] as the compound, how does the normalised viability read?
Its normalised viability is 61.2%.

Which normalised viability does the source give for `O=C(Cc1ccc(-c2ccc(OCCN3CCOCC3)cc2)cn1)NCc1ccccc1` [KX2-391] here?
The normalised viability was 46.6%.

For `Nc1ccccc1NC(=O)c1ccc(CNC(=O)OCc2cccnc2)cc1` [Entinostat], which normalised viability is on record?
Its normalised viability is 72%.

Which normalised viability does the source give for `C=CC(=O)Nc1cc2c(Nc3ccc(F)c(Cl)c3)ncnc2cc1OCCCN1CCOCC1` [Canertinib] here?
The normalised viability was 32.4%.

Which normalised viability does the source give for `CC[C@H](Nc1ncnc2[nH]cnc12)c1nc2cccc(F)c2c(=O)n1-c1ccccc1` [CAL-101] here?
The normalised viability was 58%.

What follows are compounds tested on MDA-MB-453 in the same assay as above. Details: 7.5 nM; incubation time: 72 h.
In short: as §1

For `CC(=O)Nc1cccc(-n2c(=O)n(C3CC3)c(=O)c3c(Nc4ccc(I)cc4F)n(C)c(=O)c(C)c32)c1`, which normalised viability is on record?
Its normalised viability is 99.6%.

Same assay, conditions: 29.7 nM; incubation time: 72 h

With `CCN(CC)CCCC(C)Nc1c2ccc(Cl)cc2nc2ccc(OC)cc12` (stereo unspecified) [Mepacrine] as the compound, how does the normalised viability read?
Its normalised viability is 103%.

Same assay, conditions: 30 nM; incubation time: 72 h

`O=C(/C=C/c1cccnc1)NCCCCC1CCN(C(=O)c2ccccc2)CC1` [FK-866] was tested. Which normalised viability did it give?
Its normalised viability is 23.8%.

How did the normalised viability turn out when `CC[C@@H]1C(=O)N(C)c2cnc(Nc3ccc(C(=O)NC4CCN(C)CC4)cc3OC)nc2N1C1CCCC1` [BI 2536] was run?
The normalised viability was 28.4%.

Same assay, conditions: 300 nM; incubation time: 72 h

With `Nc1ncn([C@H]2C[C@H](O)[C@@H](CO)O2)c(=O)n1` [Decitabine] as the compound, how does the normalised viability read?
The normalised viability was 95.2% and 101%.

`CCN(CC)CCCC(C)Nc1c2ccc(Cl)cc2nc2ccc(OC)cc12` (stereo unspecified) [Mepacrine] was tested. Which normalised viability did it give?
The normalised viability was 101%.

For `Nc1nc2[nH]cc(CCc3ccc(C(=O)N[C@@H](CCC(=O)O)C(=O)O)cc3)c2c(=O)[nH]1` [Pemetrexed], which normalised viability is on record?
The normalised viability was 102%.

`COc1cc([C@@H]2c3cc4c(cc3[C@@H](O[C@@H]3O[C@@H]5CO[C@@H](c6cccs6)O[C@H]5[C@H](O)[C@H]3O)[C@H]3COC(=O)[C@H]23)OCO4)cc(OC)c1O` [Teniposide] was tested. Which normalised viability did it give?
Its normalised viability is 87.9%.

`COc1cc2nccc(Oc3ccc(NC(=O)Nc4cc(C)on4)c(Cl)c3)c2cc1OC` [Tivozanib] was tested. Which normalised viability did it give?
Its normalised viability is 95.8%.

Which normalised viability does the source give for `O=C(Cc1ccc(-c2ccc(OCCN3CCOCC3)cc2)cn1)NCc1ccccc1` [KX2-391] here?
The normalised viability was 28.3%.

With `Nc1ccccc1NC(=O)c1ccc(CNC(=O)OCc2cccnc2)cc1` [Entinostat] as the compound, how does the normalised viability read?
The normalised viability was 103%.

Which normalised viability does the source give for `C=CC(=O)Nc1cc2c(Nc3ccc(F)c(Cl)c3)ncnc2cc1OCCCN1CCOCC1` [Canertinib] here?
The normalised viability was 48.6%.

Which normalised viability does the source give for `CC[C@H](Nc1ncnc2[nH]cnc12)c1nc2cccc(F)c2c(=O)n1-c1ccccc1` [CAL-101] here?
Its normalised viability is 86%.
